System: BIE (bovine intestinal epithelial) cells
Test: Inflammatory cytokine gene expression (RT-PCR) in LPS-stimulated bovine intestinal epithelial cells
Assay type: cell-based
Settings: CNSL 30 ppm, aspirin 10 ppm, single agents
Experimental: To evaluate the effect of endotoxin stimulated inflammatory reaction in the intestine, CNSL, vitamin K1 (FUJIFILM Wako Pure Chemical Corporation), or a combination thereof was added to bovine intestinal epithelial cells, the cells were cultured, and cytokine gene expression analysis was performed. Aspirin was used as a positive control. • 1. Seeding of BIE Cells • BIE (bovine intestinal epithelial) cells were seeded in a 12-well plate (manufactured by COSTAR) at 3.0×10^4 cells/well, and cultured in a CO2 incubator. • 2. […] A culture supernatant was collected, the wells were then washed with the sterilized PBS, and adherent cells were solubilized with TRIZOL, and harvested (at 9:00 p.m. on Day 5 and at 9:00 a.m. on Day 6) (12 hours or 24 hours) The sample in which TRIZOL (manufactured by INVITROGEN) is dissolved is partially purified by phenol-chloroform extraction and ethanol precipitation, and then dissolved in 10 μL of RNase-free water, and the O.D. (absorbance) of the resultant is measured with NanoDrop (manufactured by Thermo Fisher Scientific K.K.). […]

CC(=O)Oc1ccccc1C(=O)O [aspirin, acetylsalicylic acid]
action of the inflammation mediators, stimulated by endotoxin (LPS): suppress

— US20240252572A1, “ANTI-INFLAMMATORY AGENT FOR INTESTINAL CELLS OF DOMESTIC ANIMAL” (SDS BIOTECH K.K., priority 2021, published 2024)
